Experiment [1] deals with benzoylformate decarboxylase (BFDC) (Pseudomonas putida, UniProt P20906). Kind of experiment: stopped-flow PDA transient kinetics. It is filed as binding.
Another experiment deals with benzaldehyde lyase (BAL) (Pseudomonas fluorescens, UniProt P51853). Kind of experiment: CD titration of purified BAL. The format is binding.
Sequence of benzaldehyde lyase (BAL) (P51853 whole entry): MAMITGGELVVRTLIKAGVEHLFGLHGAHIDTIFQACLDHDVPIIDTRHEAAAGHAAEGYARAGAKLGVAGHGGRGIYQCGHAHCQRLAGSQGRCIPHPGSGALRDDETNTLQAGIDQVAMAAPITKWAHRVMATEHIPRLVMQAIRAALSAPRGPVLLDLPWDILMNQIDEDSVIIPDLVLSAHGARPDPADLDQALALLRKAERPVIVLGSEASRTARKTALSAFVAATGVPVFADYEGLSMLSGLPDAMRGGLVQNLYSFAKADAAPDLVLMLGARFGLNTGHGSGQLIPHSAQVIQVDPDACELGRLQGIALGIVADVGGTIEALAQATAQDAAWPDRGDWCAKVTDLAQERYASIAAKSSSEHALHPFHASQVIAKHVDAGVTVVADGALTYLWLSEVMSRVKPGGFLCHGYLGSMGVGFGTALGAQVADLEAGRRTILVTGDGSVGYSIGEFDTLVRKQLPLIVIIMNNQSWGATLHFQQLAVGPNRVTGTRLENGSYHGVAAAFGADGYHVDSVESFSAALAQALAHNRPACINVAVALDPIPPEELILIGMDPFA

Sequence of benzoylformate decarboxylase (BFDC) (P20906 whole entry): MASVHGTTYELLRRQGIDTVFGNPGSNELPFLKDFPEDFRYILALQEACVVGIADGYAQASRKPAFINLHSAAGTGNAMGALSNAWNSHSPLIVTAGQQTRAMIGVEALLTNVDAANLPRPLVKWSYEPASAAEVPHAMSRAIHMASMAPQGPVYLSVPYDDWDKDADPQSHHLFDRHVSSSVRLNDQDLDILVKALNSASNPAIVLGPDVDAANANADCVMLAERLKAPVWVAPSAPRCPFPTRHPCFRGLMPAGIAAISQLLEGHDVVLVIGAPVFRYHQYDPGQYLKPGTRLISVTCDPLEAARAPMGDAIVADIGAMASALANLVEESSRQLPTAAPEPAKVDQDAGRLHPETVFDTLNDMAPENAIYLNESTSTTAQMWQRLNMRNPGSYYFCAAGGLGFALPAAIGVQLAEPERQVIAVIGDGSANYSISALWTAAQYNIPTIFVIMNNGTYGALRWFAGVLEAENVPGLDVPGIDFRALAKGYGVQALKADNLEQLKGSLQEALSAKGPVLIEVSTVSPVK

By Kd is commonly meant a measure of binding affinity in units of concentration. Low values mean a tighter complex, high ones a looser complex. Take `O=C(O)C(=O)/C=C/c1cccnc1` [3-PKB, (E)-2-oxo-4-(pyridin-3-yl)but-3-enoic acid]: binding in experiment [1] was put at a Kd of 340 µM.

`O=C/C=C/c1cccnc1` [PAA, (E)-3-(pyridin-3-yl)acrylaldehyde]: the Kd at benzaldehyde lyase (BAL) came out at 21.4 ± 1.98 µM.

Values taken from publication PMC2788921 (Biochemistry, 2009).
